# From patent publication US20140274927A1, “TNF-Related Biomarkers For Assessing Cancer Cell Response To Treatment With Taxane And/Or Anthracycline Drugs” (priority 2013, published 2014)
# Read-outs that look alike come from different tables or passages of the source.
# Experiments:
# monocyte TNF levels = details: gastric cancer patients, chemotherapy; cited from earlier work
# [1] = tested on: A2780 ovarian tumour cells; details: cited from earlier work
# MCF-7CC cells [2] = assay: Clonogenic assay
# Description: (§1) Cellular sensitivity to TNFα or docetaxel was assessed using a clonogenic assay as described previously. Docetaxel resistance factors for the cell lines were determined by dividing the IC50 for docetaxel in the taxane-resistant cell lines by the IC50 for MCF-7CC cells. […] (SN-50, 7 μg/ml). A control peptide at the same concentration (SN-50M) was used in the latter experiments to assess the specificity of NF-κB inhibition.
# MCF-7TXT cells [3] = assay: Clonogenic assay
# Description: (§2) MCF-7 cells from the American Tissue Culture Collection (catalog number HTB-22) were cultured or selected for survival in increasing doses of docetaxel or paclitaxel as previously described [17;18]. The initial concentrations of docetaxel and paclitaxel used to begin selection (dose 1) were 0.51 and 0.56 nM, respectively. Cells selected to docetaxel concentrations of 1.11 nM (dose 8, MCF-7TXT8), 3.33 nM (dose 9, MCF-7TXT9), 5.00 nM (dose 10, MCF-7TXT10), 15 nM (dose 11, MCF-7TXT11), and 45 nM (dose 12, MCF-7TXT12) were used in this study. Numbers in subscripts of cell line names refer to the maximum docetaxel dose level to which the cells were exposed. The paclitaxel resistant cell line used in this study was selected in an identical manner to a final concentration of 6.64 nM paclitaxel (MCF-7TAX-1 cells; hyphenated number indicates the first cell line selection, not drug dose). […] A2780 ovarian carcinoma cells from the European Collection of Cell Cultures were also selected for resistance to docetaxel in an identical manner (A2780DXL cells), including the creation of “co-cultured control” A2780CC cells.
# as §1
# MCF-7TAX-1 cells [4] = details: cited from earlier work
# murine macrophages = details: cited from earlier work
# [5] = tested on: NF-κB p65 and p50 subunits; assay: NF-κB activity in nuclear extracts (TransAM NF-κB Family ELISA); type: cell-based, human; details: MCF-7CC and MCF-7TXT cells, 50 nM docetaxel 24 hours; except selection doses >15 nM (dose 11 and 12)
# Description: MCF-7CC and MCF-7TXT cells were cultured in the presence or absence of 50 nM docetaxel for 24 hours. The activity of the NF-κB p65 and p50 subunits in 10 μg of nuclear extracts was assessed as outlined in the TransAM™ NF-κB Family ELISA kit (Active Motif™, Carlsbad, Calif.). Readings at 450 nm were normalized to the sum of all readings on the plate in order to compare across triplicate experiments.
# [6] = breast cancer patients following docetaxel infusion; cited from earlier work
# A2780DXL cells = assay: Clonogenic assay; type: cell-based, human; details: A2780DXL cells at maximally tolerated dose (405 nM)
# Description: as §2, §1
# [7] = tested on: serum levels of proinflammatory cytokines, including TNFα; details: castration-resistant prostate cancer patients, two days after administration; cited from earlier work
# MCF-7TAX-1 cells [8] = assay: sTNFα in cell culture medium by ELISA; type: cell-based, human; details: presence or absence of docetaxel
# MCF-7TXT cells [9] = assay: sTNFα in cell culture medium by ELISA; type: cell-based, human; details: for sTNFα levels: 50 nM docetaxel
# Description: (§3) Concentrated proteins from the medium of two million MCF-7CC, MCF-7TXT or A2780 cells (grown in culture in the absence or presence of various concentrations of paclitaxel or docetaxel) were assessed for levels of sTNFα or sTNFR1 using ELISA kits from R&D Systems™, following the manufacturer's instructions.
# MCF-7CC cells [10] = assay: sTNFα in cell culture medium by ELISA; type: cell-based, human
# Description: as §3
# A2780 cells = assay: sTNFα in cell culture medium by ELISA; type: cell-based, human
# Description: as §3
# MCF-7TAX-1 cells [11] = assay: Clonogenic assay; type: cell-based, human
# Description: as §2, §1
# C2C12 myotubes = details: cited from earlier work
# MCF-7TXT cells [12] = details: cited from earlier work
compound,measurement,setting,value
O=c1[nH]cc(F)c(=O)[nH]1 [5FU],monocyte TNF levels,monocyte TNF levels,no effect
CC[C@@]1(O)C(=O)OCc2c1cc1n(c2=O)Cc2cc3c(CN(C)C)c(O)ccc3nc2-1 [Topotecan],TNF alpha production / levels,[1],no effect on TNF alpha levels
N.N.[Cl][Pt][Cl] [cisplatin],TNF alpha production / levels,[1],increased TNF alpha production
C[C@@H]1C[C@@H]([C@H](O)CC2CC(=O)NC(=O)C2)C(=O)[C@@H](C)C1 [cycloheximide],effect on TNFα cytotoxicity,"MCF-7CC cells [2]; cycloheximide 5 μg/mL with 10 ng/mL TNFα, 24 hours",only a small additional effect
same,effect on TNFα cytotoxicity,"MCF-7TXT cells [3]; MCF-7TXT10 cells, cycloheximide 5 μg/mL with 10 ng/mL TNFα, 24 hours",restored TNFα's ability to be cytotoxic
CC(=O)O[C@@]12CO[C@@H]1C[C@H](O)[C@@]1(C)C(=O)[C@H](O)C3=C(C)[C@@H](OC(=O)[C@H](O)[C@@H](NC(=O)OC(C)(C)C)c4ccccc4)C[C@@](O)([C@@H](OC(=O)c4ccccc4)[C@H]21)C3(C)C [docetaxel],cross resistance to docetaxel,MCF-7TAX-1 cells [4],46 fold
same,TNFα expression,murine macrophages; same study,no effect
same,p65 and p50 subunit binding to the NF-κB sequence,[5],even higher levels
same,plasma levels of docetaxel,[6],10 to 75 nM
same,resistance to docetaxel,A2780DXL cells,~4000 fold
same,"serum levels of proinflammatory cytokines, including TNFα",[7],increased
same,docetaxel sensitivity,MCF-7TXT cells [3]; MCF-7TXT8 cells (selected to 1.1 nM docetaxel) versus MCF-7CC,did not affect docetaxel sensitivity
same,resistance to docetaxel (IC50 ratio to MCF-7CC),MCF-7TXT cells [3]; MCF-7TXT9 cells (selected to 3.33 nM docetaxel),11.4 fold
same,docetaxel resistance factor,MCF-7TXT cells [3]; MCF-7TXT10 cells (selected to 5 nM docetaxel),16.6
same,docetaxel resistance factor,MCF-7TXT cells [3]; MCF-7TXT11 cells (selected to 15 nM docetaxel),32.8
same,docetaxel resistance factor,MCF-7TXT cells [3]; MCF-7TXT12 cells (selected to 45 nM docetaxel),184
same,sTNFα levels versus MCF-7CC,MCF-7TAX-1 cells [8],No differences
same,sTNFα secretion,"MCF-7TXT cells [9]; MCF-7TXT8 cells, 50 nM docetaxel versus untreated",no significant difference
same,further increase of sTNFα production,"MCF-7TXT cells [9]; MCF-7TXT9 cells, 50 nM docetaxel versus untreated",1.62 fold
same,further increase of sTNFα production,"MCF-7TXT cells [9]; MCF-7TXT10 cells, 50 nM docetaxel versus untreated",1.27 fold
same,sTNFα levels,MCF-7TXT cells [9]; MCF-7TXT11 cells,returned to basal levels
same,sTNFα levels,MCF-7TXT cells [9]; MCF-7TXT12 cells,returned to basal levels
same,sTNFα levels in media,"MCF-7CC cells [10]; MCF-7CC cells, 3 nM docetaxel, 48 hours",significantly elevated
same,sTNFα secretion,"MCF-7CC cells [10]; MCF-7CC cells, 50 nM docetaxel versus untreated",no significant difference
same,sTNFα levels secreted,"MCF-7CC cells [10]; MCF-7CC cells, 0.1 to 1 nM docetaxel, versus untreated",not significantly changed
same,TNFα production and sTNFα release,"MCF-7CC cells [10]; breast tumor cells, docetaxel 3 to 45 nM",can stimulate TNFα production and sTNFα release
same,sTNFα levels secreted,"A2780 cells; A2780CC cells, 0.1 to 1 nM docetaxel, versus untreated",not significantly changed
same,TNFα produced in response to docetaxel,"A2780 cells; A2780 cells, compared with MCF-7CC cells, 48 hours",even greater amounts
same,TNFα production and sTNFα release,"A2780 cells; ovarian tumor cells, docetaxel 3 to 45 nM",can stimulate TNFα production and sTNFα release
COc1cccc2c1C(=O)c1c(O)c3c(c(O)c1C2=O)C[C@@](O)(C(=O)CO)C[C@@H]3O[C@H]1C[C@H](N)[C@H](O)[C@H](C)O1 [doxorubicin],monocyte TNF levels,monocyte TNF levels,no effect
same,TNF alpha production / levels,[1],increased TNF alpha production
same,TNFα expression,"MCF-7CC cells [10]; MCF-7 breast tumour cells, FIG. 1D",induces TNFα expression
same,TNFα expression,"A2780 cells; A2780 ovarian tumour cells, FIG. 1E",induces TNFα expression
CO[C@@]12[C@H](COC(N)=O)C3=C(C(=O)C(C)=C(N)C3=O)N1C[C@@H]1N[C@@H]12 [mitomycin C],monocyte TNF levels,monocyte TNF levels,no effect
CC(=O)O[C@H]1C(=O)[C@@]2(C)[C@H]([C@H](OC(=O)c3ccccc3)[C@]3(O)C[C@H](OC(=O)[C@H](O)[C@@H](NC(=O)c4ccccc4)c4ccccc4)C(C)=C1C3(C)C)[C@]1(OC(C)=O)CO[C@@H]1C[C@@H]2O [paclitaxel],sTNFα release,murine macrophages; levels unachievable in patients,increase sTNFα release
same,paclitaxel resistance factor,MCF-7TAX-1 cells [11]; maximally tolerated dose of paclitaxel,42
same,TNFα production,"C2C12 myotubes; 4 hours following treatment, paclitaxel 10 nM to 10 μM",did not induce increased TNFα production
same,NF-κB activity,C2C12 myotubes,induced NF-κB activity
same,"cross-resistance to paclitaxel, resistance factor",MCF-7TXT cells [12]; selection dose 11,148
same,"cross-resistance to paclitaxel, resistance factor",MCF-7TXT cells [12]; selection dose 12,251
same,sTNFα production,"A2780 cells; A2780 cells, paclitaxel at concentrations 15 nM, compared with docetaxel",even higher levels
same,sTNFα release,"A2780 cells; ovarian tumor cells, paclitaxel 5 and 15 nM",dramatically increase sTNFα release
CC[C@]1(O)C[C@@H]2CN(CCc3c([nH]c4ccccc34)[C@@](C(=O)OC)(c3cc4c(cc3OC)N(C)[C@H]3[C@@](O)(C(=O)OC)[C@H](OC(C)=O)[C@]5(CC)C=CCN6CC[C@]43[C@@H]65)C2)C1 [vinblastine],TNF alpha production / levels,[1],increased TNF alpha production
TNFα,colony formation,MCF-7CC cells [2]; TNFα 50 or 100 ng/mL,very strongly reduced
same,colony formation,"MCF-7TAX-1 cells [11]; TNFα 50 or 100 ng/ml, relative to MCF-7TXT10",strong reductions in colony formation
same,NF-κB activity,C2C12 myotubes,induced NF-κB activity
same,reduction of colony formation,"MCF-7TXT cells [3]; MCF-7TXT8 cells, TNFα 10 ng/ml",66.6±1.7%
same,colony formation in absence or presence of TNFα,"MCF-7TXT cells [3]; MCF-7TXT10 cells, TNFα 10 ng/mL",significant resistance to TNFα
same,reductions in colony formation,"MCF-7TXT cells [3]; MCF-7TXT10 cells, TNFα 50 ng/mL or 100 ng/mL, compared with MCF-7CC",much smaller
same,colony formation,"MCF-7TXT cells [3]; MCF-7TXT12 cells, TNFα 10 ng/mL",increased colony formation
